# Reference: publication PMC7044129, “Spexin and a Novel Cichlid-Specific Spexin Paralog Both Inhibit FSH and LH Through a Specific Galanin Receptor (Galr2b) in Tilapia” (Frontiers in Endocrinology, 2020)
# No end group written: not given here.
# Key:
# [1] = test system: hypothalamic spexin expression; conditions: ovariectomized goldfish, estrogen replacement; cited from earlier work
# Text: (§1) Spexin has been implicated in regulating the hypothalamic-pituitary-gonad (HPG) axis in some fish species. […] The first report on fish spexin in zebrafish and goldfish identified high and dynamic expression in the brain throughout the reproductive stages ([10]). […] Ovariectomized goldfish had increased hypothalamic spexin e ...
# [2] = test system: Tilapia D2 dopamine receptor; conditions: COS7 cells, SRE-Luc and Gqi5
# Procedure: (§2) EC50 values were calculated from dose response curves by means of computerized non-linear curve fitting on baseline-corrected (control) values using Prism version 6 software (GraphPad).
# (1 picture or pasted object on this page, not shown here)
# [3] = test system: Spx1 levels and expression; conditions: cited from earlier work
# Text: (§3) Spexin plays a role in feeding behavior and metabolism in fish and mammals [reviewed in ([3])]. In the orange-spotted grouper ([11]), half-smooth tongue sole ([46]), and spotted scat ([46]), starvation increased Spx1 expression. […] This effect was also observe ...
# spexin expression = conditions: spotted scat, in vitro; cited from earlier work
# Text: as §1
# [4] = test system: agouti-related peptide (AgRP) expression; conditions: zebrafish; cited from earlier work
# Text: as §3
# goldfish = conditions: injection; cited from earlier work
# Text: as §3
# [5] = test system: feeding behavior induced by NPY and orexin; conditions: intracerebroventricular injection; no reference printed at the sentence (preceding sentence ref 2); cited from earlier work
# Text: as §3
# [6] = test system: appetite stimulants and anorexigenic factors in the brain; conditions: goldfish brain, central administration, cited from earlier work
# Text: as §3
# GalR2 [7] = conditions: cited from earlier work
# Text: Spexin mediates its effects by activating an inhibitory G-protein (Gαi) via galanin receptor (GalR) 2/3. Like the kisspeptin, galanin, and spexin peptides, the kisspeptin and galanin receptors are related. Ancestral forms of KissR, GalR1, and GalR2/3 were identified on different VACs with 1R and 2R expanding each clade, giving rise to four KissR (KissR1, 3, 2, 4), two GalR1 (1a, 1b), two GalR2 (2a, 2b) and GalR3 paralogs ([15]). Our phylogenetic analysis supports that of Kim et al. ([15]), showing that GalRs are divided into two major clades, namely GalR1 and GalR2/3, with KissRs forming a dis ...
# Galr2b = conditions: cited from earlier work
# Text: (§4) The galanergic neurotransmission system is one of the newest described signaling systems. […] Three different types of galanin receptors have been described so far in mammals: galanin receptor 1, 2, and 3 (GALR1, GALR2, and GALR3) ([14]). All of them are members of the G protein-coupled receptor (GPCR) family and act through stimulation of various seco ...
# Galr2a = conditions: cited from earlier work
# Text: as §4
# GALR3 = conditions: cited from earlier work
# Text: as §4
# GALR2 [8] = conditions: cited from earlier work
# Text: as §4
# [9] = test system: GnIH, GnRH-III, GpHα and FSHβ expression; conditions: sole; cited from earlier work
# Text: Spexin mRNA expression levels may also be correlated with reproductive development. Increases in LH and FSH mRNA expression is seasonal and corresponds to gonadal development ([50], [51]).
# stomach contraction = conditions: mammals; cited from earlier work
# Text: (§5) Spexin (SPX1; also termed neuropeptide Q) was identified first by computational methods in humans ([1]), and then also by chemical methods in goldfish ([2]). These computational methods have been attempted mostly on the basis of the characteristics of the prohormones from which active neuropeptides are processed. The mature peptide sequence contains 14 amino acids that are flanked by monobasic and dibasic proteolytic cleavage sites. […] A paralog o ...
# adrenocortical cell = conditions: mammals; cited from earlier work
# Text: as §5
# LH release = conditions: goldfish; cited from earlier work
# Text: as §1
# [10] = test system: goldfish pituitary cultures; conditions: cited from earlier work
# Text: as §1
# tilapia Galr2a = tilapia Galr2a (Oreochromis niloticus, UniProt A0A650AWG9); format: cell-based, Nile tilapia (Oreochromis niloticus); conditions: Gqi pathway (chimeric Gqi5 with SRE-luc, Gαi readout), COS7 cells, 6 h stimulation after 16 h serum starvation, mean ± SEM, minimum three independent transfections, triplicate wells
# Procedure: as §2
# Chain of tilapia Galr2a (A0A650AWG9 entry or part of it): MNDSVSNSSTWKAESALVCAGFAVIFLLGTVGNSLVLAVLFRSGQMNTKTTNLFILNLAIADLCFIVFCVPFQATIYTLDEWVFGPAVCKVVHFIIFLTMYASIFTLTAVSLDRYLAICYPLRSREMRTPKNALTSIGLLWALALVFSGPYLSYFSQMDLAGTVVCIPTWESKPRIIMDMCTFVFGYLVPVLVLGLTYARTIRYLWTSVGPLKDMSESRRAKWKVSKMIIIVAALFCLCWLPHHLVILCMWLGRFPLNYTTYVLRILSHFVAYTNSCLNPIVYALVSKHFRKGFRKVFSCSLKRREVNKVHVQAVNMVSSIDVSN
molecule,measurement,setting,value
estrogen,hypothalamic spexin expression,[1],returned expression to basal levels
NCCc1ccc(O)c(O)c1 [dopamine],luciferase activity via tilapia D2 receptor with Gqi5 (in words),[2],dose-dependent increase in luciferase activity
insulin: insulin (cited study on spexin regulation),circulating Spx1 and brain Spx1 expression,[3],"increase circulating levels of Spx1 and its expression in the telencephalon, hypothalamus, and optic tectum"
C[C@]12CC[C@@H]3c4ccc(O)cc4CC[C@H]3[C@@H]1CC[C@@H]2O [estradiol],spexin expression,spexin expression,decreased spexin expression in a dose-dependent manner in vitro
"Spexin: spexin of cited literature; 14 amino acid peptide hormone, species varies",AgRP expression,[4],suppressed agouti-related peptide (AgRP) expression
same,feeding behavior,goldfish,decreased surface feeding and increased food rejection
same,NPY- and orexin-induced feeding,[5],inhibited feeding behavior induced by NPY and orexin
same,expression of anorexigenic factors,"[6]; POMC, CART, CCK, MCH, CRH",increased expression of anorexigenic factors
same,expression of appetite stimulants,[6],"decrease in expression of appetite stimulants (NPY, AgRP, and apelin)"
same,dissociation / receptor internalization at GalR2,GalR2 [7],quickly dissociated after G-protein signaling
same,functional agonism at zebrafish Galr2b,Galr2b,functional agonist
same,functional agonism at zebrafish Galr2a,Galr2a,functional agonist
same,functional agonism at human GALR3,GALR3,functional agonist
same,functional agonism at human GALR2,GALR2 [8],functional agonist
same,GnIH and GnRH-III expression,[9],increasing gonadotropin inhibitory hormone (GnIH) and GnRH-III expression
same,GpHα and FSHβ expression,[9],decreasing GpHα and FSHβ expression
same,stomach contraction,stomach contraction,inducing stomach contraction
same,adrenocortical cell proliferation,adrenocortical cell,inhibiting adrenocortical cell proliferation
same,LH release in vivo,LH release,inhibited LH release
same,LH release in pituitary cultures,[10],inhibited LH release
GWTLNSAGYLLGPHAVGNHRSFSNKNGLTS-NH2 [Galanin],EC50,tilapia Galr2a,0.0001 ± 5.6 log nM
